These results are taken from patent US8207329B2, “Synthesis of chlorins and phorbines with enhanced red spectral features” (North Carolina State University, priority 2005, dated 2012).

The nature of the data set: Absorption spectra obtained in toluene at room temperature. The following applies: for ΔνQy: redshift relative to the parent chlorin (ZnC or Zn—M^10), toluene; for Qy band / B/Qy band intensity ratio: toluene at room temperature; for Qy band: normalized at the B bands. It counts as physicochemical.
Text: (§1) Absorption Spectra. The spectral properties of interest in the chlorins include the position of the long-wavelength Qy transition, the intensity of the Qy transition, and the fluorescence quantum yield of the chlorin. The intensity of the Qy transition can be assessed by the measured molar absorption coefficient; however, comparisons of such values are somewhat unreliable given the experimental variability encountered upon handling small quantities of materials. A better comparison is achieved by examination of the ratio of the intensities of the B and Qy bands for a given compound (B/Qy ratio), which is determined simply by absorption spectroscopy without requiring determination of the molar absorption coefficient. For a wide variety of applications, bathochromic and hyperchromic shifts of the Qy band are desired (i.e., shifted to longer wavelength and intensified), thereby affording strong absorption in the deep-red region.
General. ^1H NMR (400 MHz) and ^13C NMR (75 MHz) spectra were collected at room temperature in CDCl3. Absorption spectra were obtained in toluene at room temperature. Chlorins were analyzed by laser desorption mass spectrometry (LD-MS) in the absence of a matrix. Fast atom bombardment mass spectrometry (FAB-MS) data are reported for the molecule ion or protonated molecule ion. Melting points are uncorrected. All commercially available materials were used as received. All palladium-coupling reactions were carried out using standard Schlenk-line techniques.
as §1, with “B. Absorption” for “Absorption”, “Spectroscopy.” for “Spectra.”, “increased” for “intensified), thereby affording strong absorption”, “intensity).” for “the deep-red region.”
General. ^1H NMR (400 MHz) and ^13C NMR (75 MHz) spectra were collected at room temperature in CDCl3 unless noted otherwise. Absorption spectra were obtained in toluene at room temperature. Chlorins were analyzed by laser desorption mass spectrometry (LD-MS) in the absence of a matrix. Metalation of free base chlorins was monitored by fluorescence spectroscopy. Melting points are uncorrected. All commercially available materials were used as received.

Where [1] appears, read: Table 1, in toluene at room temperature.
[2] abbreviates: Table 3, zinc chlorins in toluene at room temperature.
Where [3] appears, read: figure legends (FIG. 1, 2, 4, 5).

As to `CC(=O)c1cc2[n-]c1cc1nc(cc3ccc([n-]3)c(-c3ccc(C)cc3)c3nc(c2-c2c(C)cc(C)cc2C)C=C3)C(C)(C)C1.[Cu+2]` [Cu-8, Cu(II)-13-Acetyl-17,18-dihydro-10-mesityl-18,18-dimethyl-5-p-tolylporphyrin], under setting [1], the B/Qy intensity ratio was 3.1; the “Log ε (M^−1cm^−1) (Qy band)” value was 4.69 M^−1cm^−1; the “λmax (nm), B” value came to 420 nm; the “λmax (nm), Qy” value amounted to 631 nm.

Consider `Cc1ccc(C2=c3ccc4[n]3[Zn][n]3c(cc(Br)c3C=C3CC(C)(C)C(=N3)C=4)C(c3c(C)cc(C)cc3C)=C3C=CC2=N3)cc1` [Zn-6, Zn(II)-13-Bromo-17,18-dihydro-10-mesityl-18,18-dimethyl-5-p-tolylporphyrin], for which, under setting [1], the B/Qy intensity ratio was found to be 4.0; the “Log ε (M^−1cm^−1) (Qy band)” value stood at 4.65 M^−1cm^−1; the “λmax (nm), B” value was 414 nm; the “λmax (nm), Qy” value is recorded as 616 nm.

`CC(=O)c1cc2[n]3c1C=C1CC(C)(C)C(=N1)C=c1cc(C#C[Si](C(C)C)(C(C)C)C(C)C)c([n]1[Zn]3)=CC1=NC(=C2)C=C1` [ZnC-E^3A^13]: the “ΔνQy” value (Table 3) was 1320 cm⁻¹. Also, under setting [2], the B/Qy ratio is 1.2; the “λmax (nm), B” value was found to be 428 nm; the “λmax (nm), Qy” value is on record as 655 nm. For the same compound, under setting [3], the Qy band amounted to 655 nm. Moreover, the “B/Qy band intensity ratio” value (figure legends (FIG. 4, 5)) was 1.2.

On to `CC(C)[Si](C#Cc1cc2[n]3c1C=C1CC(C)(C)C(=N1)C=c1cc(C#C[Si](C(C)C)(C(C)C)C(C)C)c([n]1[Zn]3)=CC1=NC(=C2)C=C1)(C(C)C)C(C)C` [ZnC-E^3E^13], for which, under “Table 3”, the “ΔνQy” value was 1080 cm⁻¹. Further, under setting [2], the B/Qy ratio stood at 1.4; the “λmax (nm), B” value came to 421 nm; the “λmax (nm), Qy” value was found to be 645 nm. For the same compound, the Qy band (figure legends (FIG. 4, 5)) is on record as 645.

As for `CC(=O)c1cc2[n]3c1C=C1CC(C)(C)C(=N1)C=c1cc(C#C[Si](C(C)C)(C(C)C)C(C)C)c([n]1[Zn]3)=CC1=NC(=C2c2c(C)cc(C)cc2C)C=C1` [ZnC-E^3M^10A^13, Zn(II)-13-Acetyl-3-[2-(triisopropylsilyl)ethynyl]-17,18-dihydro-10-mesityl-18,18-dimethylporphyrin], under “Table 3”, the “ΔνQy” value came out at 1160 cm⁻¹. For the same compound, under setting [2], the B/Qy ratio worked out at 1.5; the “λmax (nm), B” value was 428 nm; the “λmax (nm), Qy” value worked out at 652 nm. The same compound showed a Qy band (figure legend (FIG. 4)) of 652. In addition, where the note is “figure legends (FIG. 4, 5)”, the “B/Qy band intensity ratio” value was found to be 1.5.

Turning to `Cc1cc(C)c(C2=c3cc(C#C[Si](C(C)C)(C(C)C)C(C)C)c4[n]3[Zn][n]3c(cc(C#C[Si](C(C)C)(C(C)C)C(C)C)c3C=C3C=CC2=N3)C=C2N=C(C=4)CC2(C)C)c(C)c1` [ZnC-E^3M^10E^13, Zn(II)-3,13-Bis[2-(triisopropylsilyl)ethynyl]-17,18-dihydro-10-mesityl-18,18-dimethylporphyrin], the “ΔνQy” value (Table 3) stood at 1020 cm⁻¹. Further, under setting [2], the B/Qy ratio came to 1.6 and the “λmax (nm), Qy” value is 646 nm. Under setting [3], this compound registered a Qy band of 646 nm.

Turning to `CC(=O)c1cc2[n]3c1C=C1CC(C)(C)C(=N1)C=c1ccc([n]1[Zn]3)=CC1=NC(=C2c2c(C)cc(C)cc2C)C=C1` [ZnC-M^10A^13, Zn(II)-13-Acetyl-17,18-dihydro-10-mesityl-18,18-dimethylporphyrin], the “ΔνQy” value (Table 3) amounted to 680 cm⁻¹. Further, under setting [2], the B/Qy ratio was 2.2; the “λmax (nm), B” value stood at 418 nm; the “λmax (nm), Qy” value is recorded as 632 nm. This compound also yielded a Qy band (figure legends (FIG. 4, 5)) of 632.

With `Cc1cc(C)c(C2=c3cc(C#C[Si](C(C)C)(C(C)C)C(C)C)c4[n]3[Zn][n]3c(ccc3C=C3N=C(C=4)CC3(C)C)C=C3C=CC2=N3)c(C)c1` [ZnC-M^10E^13, Zn(II)-13-[2-(Triisopropylsilyl)ethynyl]-17,18-dihydro-10-mesityl-18,18-dimethylporphyrin], the “ΔνQy” value (Table 3) is 530 cm⁻¹. In addition, under setting [2], the B/Qy ratio is 2.3; the “λmax (nm), B” value turned out to be 412 nm; the “λmax (nm), Qy” value is recorded as 626 nm.
